Test results from US9914730B2, “Azaquinazoline inhibitors of Atypical protein Kinase C” (Ignyta, Inc., priority 2012, dated 2018).
pIC50: −log10 of the molar value. Counter-ions that a name gives are not always drawn.

Each compound was assayed against T1, full-length human PKCι (Homo sapiens, UniProt P41743) (assay: PKCι IC50 IMAP assay, full-length PKCι at 150 μM ATP). Details: read-out: IC50 in IMAP assay against full length PKCi at 150 μM ATP.
T1 construct: Recombinant, full-length human PKCι expressed in Sf21 insect cells is also commercially available; purchased; host or cells: Sf21 insect cells
T1 sequence (P41743 1-596): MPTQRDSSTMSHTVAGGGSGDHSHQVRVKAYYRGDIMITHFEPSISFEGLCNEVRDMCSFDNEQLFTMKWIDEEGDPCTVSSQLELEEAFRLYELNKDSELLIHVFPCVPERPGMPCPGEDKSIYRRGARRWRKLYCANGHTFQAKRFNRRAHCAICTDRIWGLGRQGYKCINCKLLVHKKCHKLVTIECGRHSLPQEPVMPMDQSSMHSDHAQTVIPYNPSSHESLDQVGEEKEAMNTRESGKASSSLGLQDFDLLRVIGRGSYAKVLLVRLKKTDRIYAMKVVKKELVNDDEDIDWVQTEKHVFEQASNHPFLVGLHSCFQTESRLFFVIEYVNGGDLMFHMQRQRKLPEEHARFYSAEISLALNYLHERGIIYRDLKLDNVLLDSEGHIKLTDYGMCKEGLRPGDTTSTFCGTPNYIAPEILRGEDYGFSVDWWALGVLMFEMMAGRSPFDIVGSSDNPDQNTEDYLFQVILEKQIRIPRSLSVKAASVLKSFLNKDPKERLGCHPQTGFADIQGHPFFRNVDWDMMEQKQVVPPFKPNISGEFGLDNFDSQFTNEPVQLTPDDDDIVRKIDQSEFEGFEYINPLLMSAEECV
Assay type: biochemical
Procedure, shortened: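 Dose-response IC50 values come from IMAP fluorescence polarisation after 60 min room-temperature turnover of 100 nM FAM peptide by ~15 pM insect-cell-expressed full-length PKCι at 150 μM ATP (5× KM^APP), normalised to no-compound and no-enzyme controls.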

pIC50, 5.00 to 6.00:
Cn1nccc1-c1nccc2c(NC[C@@H](N)Cc3ccccc3)nc(-c3ccncc3)nc12 [Example 104, N-[(2S)-2-amino-3-phenylpropyl]-8-(1-methyl-1H-pyrazol-5-yl)-2-(pyridin-4-yl)-pyrido[3,4-d]-pyrimidin-4-amine]
c1cc(-c2nc(N3CCCNCC3)c3ccncc3n2)ccn1 [Example 33, 1-[2-(pyridin-4-yl)-pyrido[3,4-d]-pyrimidin-4-yl]-1,4-diazepane]
COc1cncc2nc(-c3ccnc(Nc4ccc(Cn5ccnc5)cc4)c3)nc(N[C@@H]3CCNC3)c12 [Example 333, {2-[2-(4-Imidazol-1-ylmethyl-phenylamino)-pyridin-4-yl]-5-methoxy-pyrido[3,4-d]pyrimidin-4-yl}-(R)-pyrrolidin-3-yl-amine]

pIC50, 6.00 to 7.00:
c1cc2c(N[C@@H]3CCNC3)nc(-c3ccnc(Nc4cc(N5CCOCC5)ccn4)c3)nc2cn1 [Example 343, {2-[2-(4-Morpholin-4-yl-pyridin-2-ylamino)-pyridin-4-yl]-pyrido[3,4-d]pyrimidin-4-yl}-(R)-pyrrolidin-3-yl-amine]
Fc1cnc(Nc2cc(-c3nc(NC4CCNCC4F)c4c(C5CC5)cncc4n3)ccn2)c(F)c1 (stereo not drawn) [Example 2186, {5-Cyclopropyl-2-[2-(3,5-difluoro-pyridin-2-ylamino)-pyridin-4-yl]-pyrido[3,4-d]pyrimidin-4-yl}-(3-fluoro-piperidin-4-yl)-amine]
N[C@H](CNc1nc(-c2ccncc2)nc2c(-c3ccc(Cl)cc3)nccc12)Cc1ccccc1 [Example 103, N-[(2S)-2-amino-3-phenylpropyl]-8-(4-chloro-phenyl)-2-(pyridin-4-yl)-pyrido[3,4-d]-pyrimidin-4-amine]
COc1cncc2nc(-c3ccnc(Nc4nccs4)c3)nc(N3CCNCC3)c12 [Example 219, [4-(5-Methoxy-4-piperazin-1-yl-pyrido[3,4-d]pyrimidin-2-yl)-pyridin-2-yl]-thiazol-2-yl-amine]
N[C@H](CNc1nc(-c2ccncc2)nc2c(Nc3nc[nH]n3)nccc12)Cc1ccccc1 [Example 126, 4-N-[(2S)-2-amino-3-phenylpropyl]-2-(pyridin-4-yl)-8-N-(1H-1,2,4-triazol-3-yl)pyrido[3,4-d]pyrimidine-4,8-diamine]
COc1cncc2nc(-c3ccncc3F)nc(N3CCNCC3)c12 [Example 63, 1-[2-(3-fluoropyridin-4-yl)-5-methoxypyrido-[3,4-d]pyrimidin-4-yl]piperazine]
Fc1ccc(F)c(Nc2cc(-c3nc(N4CCNCC4)c4c(Cl)cncc4n3)ccn2)c1F [Example 257, [4-(5-Chloro-4-piperazin-1-yl-pyrido[3,4-d]pyrimidin-2-yl)-pyridin-2-yl]-(2,3,6-trifluoro-phenyl)-amine]
N#C[C@H]1CN(c2nc(-c3ccnc(Nc4c(F)cccc4F)c3)nc3cncc(C4CC4)c23)CCN1 [Example 788, (R)-4-{5-Cyclopropyl-2-[2-(2,6-difluoro-phenylamino)-pyridin-4-yl]-pyrido[3,4-d]pyrimidin-4-yl}-piperazine-2-carbonitrile]
Nc1ccc(C(=O)Nc2cc(-c3nc(N[C@@H]4CCNC4)c4ccncc4n3)ccn2)cc1 [Example 305, 4-Amino-N-{4-[4-((R)-pyrrolidin-3-ylamino)-pyrido[3,4-d]pyrimidin-2-yl]-pyridin-2-yl}-benzamide]

pIC50, 4.40 to 5.00:
COc1cncc2nc(-c3ccnc(Nc4ccccc4)c3)nc(N3CCC(F)(F)CC3)c12 [Example 460, {4-[4-(4,4-Difluoro-piperidin-1-yl)-5-methoxy-pyrido[3,4-d]pyrimidin-2-yl]-pyridin-2-yl}-phenyl-amine]
CN1CCN(c2nccc3c(NC[C@H](N)Cc4ccccc4)nc(-c4ccncc4)nc23)CC1 [Example 127, (R)—N^1-[8-(4-Methyl-piperazin-1-yl)-2-pyridin-4-yl-pyrido[3,4-d]pyrimidin-4-yl]-3-phenyl-propane-1,2-diamine]

pIC50, > 7.00:
c1ccc2c(c1)[nH]c1nccc(-c3nc(N4CCNCC4)c4c(C5CC5)cncc4n3)c12 [Example 1253, 4-(5-Cyclopropyl-4-piperazin-1-yl-pyrido[3,4-d]pyrimidin-2-yl)-9H-pyrido[2,3-b]indole trifluoroacetic acid salt]
COc1cccc(Nc2cc(-c3nc(N4CCNCC4)c4c(C5CC5)cncc4n3)ccn2)c1 [Example 571, [4-(5-Cyclopropyl-4-piperazin-1-yl-pyrido[3,4-d]pyrimidin-2-yl)-pyridin-2-yl]-(3-methoxy-phenyl)-amine]
FC(F)(F)CNc1cc(-c2nc(N3CCNCC3)c3c(C4CC4)cncc3n2)ccn1 [Example 532, [4-(5-Cyclopropyl-4-piperazin-1-yl-pyrido[3,4-d]pyrimidin-2-yl)-pyridin-2-yl]-(2,2,2-trifluoro-ethyl)-amine]
c1cc(-c2nc(N3CCNCC3)c3c(C4CCC4)cncc3n2)c2cc([C@@H]3C[C@H]4CC[C@@H]3O4)[nH]c2n1 (racemic) [Example 2122, (±)-exo-5-Cyclobutyl-2-[2-(7-oxa-bicyclo[2.2.1]hept-2-yl)-1H-pyrrolo[2,3-b]pyridin-4-yl]-4-piperazin-1-yl-pyrido[3,4-d]pyrimidine]
FC(F)(F)c1cc2c(-c3nc(N4CCNCC4)c4c(C5CCCC5)cncc4n3)ccnc2[nH]1 [Example 2105, 5-Cyclopentyl-4-piperazin-1-yl-2-(2-trifluoromethyl-1H-pyrrolo[2,3-b]pyridin-4-yl)-pyrido[3,4-d]pyrimidine]
CC1(C)CN(c2nc(-c3ccnc(Nc4c(F)cccc4F)c3)nc3cncc(C4CC4)c23)CCN1 [Example 718, {4-[5-Cyclopropyl-4-(3,3-dimethyl-piperazin-1-yl)-pyrido[3,4-d]pyrimidin-2-yl]-pyridin-2-yl}-(2,6-difluoro-phenyl)-amine]
c1cc(-c2nc(N3CCNCC3)c3c(C4CC4)cncc3n2)cc(Nc2ccn3nccc3c2)n1 [Example 564, [4-(5-Cyclopropyl-4-piperazin-1-yl-pyrido[3,4-d]pyrimidin-2-yl)-pyridin-2-yl]-pyrazolo[1,5-a]pyridin-5-yl-amine]
CN[C@H](CNc1nc(-c2ccncc2)nc2cncc(OC)c12)Cc1ccccc1 [Example 41, [(2S)-1-{[5-methoxy-2-(pyridin-4-yl)-pyrido[3,4-d]-pyrimidin-4-yl]-amino}-3-phenylpropan-2-yl](methyl)amine]
C[C@H]1CN(c2nc(-c3ccnc4[nH]c(C(C)(C)C)cc34)nc3cncc(C4CC4)c23)CCN1 [Example 2001, 2-(2-tert-Butyl-1H-pyrrolo[2,3-b]pyridin-4-yl)-5-cyclopropyl-4-((S)-3-methyl-piperazin-1-yl)-pyrido[3,4-d]pyrimidine]
Fc1cnc(Nc2c(F)cccc2F)cc1-c1nc(N2CCNCC2)c2c(C3CC3)cncc2n1 [Example 764, [4-(5-Cyclopropyl-4-piperazin-1-yl-pyrido[3,4-d]pyrimidin-2-yl)-5-fluoro-pyridin-2-yl]-(2,6-difluoro-phenyl)-amine]
Cc1cc2c(-c3nc(N4CCN[C@@H](C5CC5)C4)c4c(C5CC5)cncc4n3)ccnc2[nH]1 [Example 1216, 5-Cyclopropyl-4-((S)-3-cyclopropyl-piperazin-1-yl)-2-(2-methyl-1H-pyrrolo[2,3-b]pyridin-4-yl)-pyrido[3,4-d]pyrimidine]
Fc1ccc(Nc2cc(-c3nc(N4CCNCC4)c4c(C5CC5)cncc4n3)ccn2)c(Cl)c1 [Example 570, (2-Chloro-4-fluoro-phenyl)-[4-(5-cyclopropyl-4-piperazin-1-yl-pyrido[3,4-d]pyrimidin-2-yl)-pyridin-2-yl]-amine]
CCP(=O)(CC)c1ccc(Nc2cc(-c3nc(N4CCNCC4)c4c(C5CC5)cncc4n3)ccn2)cc1 [Example 550, [4-(5-Cyclopropyl-4-piperazin-1-yl-pyrido[3,4-d]pyrimidin-2-yl)-pyridin-2-yl]-[4-(diethyl-phosphinoyl)-phenyl]-amine]
COc1cncc2nc(-c3ccnc(Nc4cnn(-c5ccccc5)c4)c3)nc(N3CCNCC3)c12 [Example 489, 4-(5-Methoxy-4-piperazin-1-yl-pyrido[3,4-d]pyrimidin-2-yl)-N-(1-phenylpyrazol-4-yl)pyridin-2-amine]
Fc1cc(F)nc(Nc2cc(-c3nc(N4CCNCC4)c4c(C5CCC5)cncc4n3)ccn2)c1 [Example 2011, [4-(5-Cyclobutyl-4-piperazin-1-yl-pyrido[3,4-d]pyrimidin-2-yl)-pyridin-2-yl]-(4,6-difluoro-pyridin-2-yl)-amine]
Cc1ccccc1Nc1cc(-c2nc(N3CCNCC3)c3c(C4CC4)cncc3n2)ccn1 [Example 486, [4-(5-Cyclopropyl-4-piperazin-1-yl-pyrido[3,4-d]pyrimidin-2-yl)-pyridin-2-yl]-o-tolyl-amine]
